Laboratory results from PMC10023259 (Science (New York, N.Y.), 2022).

Tests used:
[1] = molecular target: T1, LYCHOS (GPR155) (Homo sapiens, UniProt Q7Z3F1); assay: [3H]-cholesterol saturation binding, scintillation counting
T1 sequence (Q7Z3F1 1-870): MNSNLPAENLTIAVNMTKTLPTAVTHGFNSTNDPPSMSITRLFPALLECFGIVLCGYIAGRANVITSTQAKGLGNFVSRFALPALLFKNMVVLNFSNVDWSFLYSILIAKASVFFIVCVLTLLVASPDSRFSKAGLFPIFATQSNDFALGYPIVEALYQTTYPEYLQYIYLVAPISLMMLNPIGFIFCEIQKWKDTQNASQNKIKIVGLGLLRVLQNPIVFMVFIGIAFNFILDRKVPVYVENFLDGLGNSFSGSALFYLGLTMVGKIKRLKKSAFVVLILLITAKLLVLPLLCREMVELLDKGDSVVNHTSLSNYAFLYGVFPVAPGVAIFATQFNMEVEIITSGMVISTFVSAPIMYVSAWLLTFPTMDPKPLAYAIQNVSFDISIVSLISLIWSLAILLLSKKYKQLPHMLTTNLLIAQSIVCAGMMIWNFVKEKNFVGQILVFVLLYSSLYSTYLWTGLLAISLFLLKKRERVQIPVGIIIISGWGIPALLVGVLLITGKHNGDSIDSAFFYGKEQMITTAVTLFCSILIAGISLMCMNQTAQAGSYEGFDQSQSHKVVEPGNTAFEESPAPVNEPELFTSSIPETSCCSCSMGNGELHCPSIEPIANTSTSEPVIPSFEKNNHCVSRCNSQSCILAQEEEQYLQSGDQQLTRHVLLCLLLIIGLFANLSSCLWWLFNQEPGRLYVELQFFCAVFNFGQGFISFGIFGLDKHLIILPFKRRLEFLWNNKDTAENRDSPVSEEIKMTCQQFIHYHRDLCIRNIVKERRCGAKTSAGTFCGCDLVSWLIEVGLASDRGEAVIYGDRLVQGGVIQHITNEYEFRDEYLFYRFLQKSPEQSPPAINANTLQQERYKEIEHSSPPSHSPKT

[2] = molecular target: LYCHOS-GATOR1 complex (Homo sapiens, UniProt Q7Z3F1); assay: FLAG co-immunoprecipitation of GATOR1 with LYCHOS from cholesterol-refed cells; assay type: cell-based
Chain of LYCHOS-GATOR1 complex (O75140 whole entry partner, one chain of several): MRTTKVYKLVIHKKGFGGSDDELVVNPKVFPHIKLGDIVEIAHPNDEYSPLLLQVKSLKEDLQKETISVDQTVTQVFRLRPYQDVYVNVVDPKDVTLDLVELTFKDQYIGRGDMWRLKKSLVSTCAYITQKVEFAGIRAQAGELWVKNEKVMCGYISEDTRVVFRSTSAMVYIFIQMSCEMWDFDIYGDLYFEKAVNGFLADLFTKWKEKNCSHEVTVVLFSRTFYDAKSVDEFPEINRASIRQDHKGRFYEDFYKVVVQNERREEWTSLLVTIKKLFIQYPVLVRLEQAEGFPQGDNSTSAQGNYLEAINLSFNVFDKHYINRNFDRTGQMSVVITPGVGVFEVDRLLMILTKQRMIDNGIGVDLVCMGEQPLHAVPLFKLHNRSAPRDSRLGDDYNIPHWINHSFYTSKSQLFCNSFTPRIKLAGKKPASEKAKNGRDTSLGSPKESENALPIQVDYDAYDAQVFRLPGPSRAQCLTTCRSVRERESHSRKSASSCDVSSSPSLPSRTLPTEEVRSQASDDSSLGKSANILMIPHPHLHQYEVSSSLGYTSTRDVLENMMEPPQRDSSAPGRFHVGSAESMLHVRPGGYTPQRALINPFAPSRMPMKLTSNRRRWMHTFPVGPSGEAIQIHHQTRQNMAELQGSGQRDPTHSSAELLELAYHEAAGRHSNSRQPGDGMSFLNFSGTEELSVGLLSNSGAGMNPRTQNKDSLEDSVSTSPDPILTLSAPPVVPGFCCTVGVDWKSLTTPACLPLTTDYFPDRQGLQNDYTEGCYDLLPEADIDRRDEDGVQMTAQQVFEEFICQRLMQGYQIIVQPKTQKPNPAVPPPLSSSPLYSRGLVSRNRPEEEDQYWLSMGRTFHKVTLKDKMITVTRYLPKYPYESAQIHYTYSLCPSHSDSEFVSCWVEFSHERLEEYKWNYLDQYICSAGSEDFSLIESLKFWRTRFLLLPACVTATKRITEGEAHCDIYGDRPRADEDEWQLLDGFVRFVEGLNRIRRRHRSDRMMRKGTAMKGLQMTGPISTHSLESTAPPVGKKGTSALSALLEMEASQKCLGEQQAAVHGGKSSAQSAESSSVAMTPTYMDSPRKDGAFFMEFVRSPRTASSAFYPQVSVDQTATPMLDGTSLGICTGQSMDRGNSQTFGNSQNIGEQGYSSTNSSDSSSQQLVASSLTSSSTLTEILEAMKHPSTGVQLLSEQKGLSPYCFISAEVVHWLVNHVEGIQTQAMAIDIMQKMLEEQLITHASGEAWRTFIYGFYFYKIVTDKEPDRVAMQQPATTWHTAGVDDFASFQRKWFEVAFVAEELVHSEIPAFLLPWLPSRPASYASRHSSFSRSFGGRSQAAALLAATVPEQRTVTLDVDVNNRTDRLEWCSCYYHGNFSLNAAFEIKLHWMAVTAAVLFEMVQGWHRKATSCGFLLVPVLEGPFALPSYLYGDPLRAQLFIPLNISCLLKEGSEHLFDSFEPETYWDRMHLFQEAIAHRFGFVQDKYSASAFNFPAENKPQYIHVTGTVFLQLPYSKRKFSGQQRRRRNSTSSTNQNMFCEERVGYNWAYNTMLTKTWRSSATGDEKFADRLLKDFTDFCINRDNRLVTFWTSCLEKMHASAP
Chain of LYCHOS-GATOR1 complex (Q8WTW4 whole entry partner, one chain of several): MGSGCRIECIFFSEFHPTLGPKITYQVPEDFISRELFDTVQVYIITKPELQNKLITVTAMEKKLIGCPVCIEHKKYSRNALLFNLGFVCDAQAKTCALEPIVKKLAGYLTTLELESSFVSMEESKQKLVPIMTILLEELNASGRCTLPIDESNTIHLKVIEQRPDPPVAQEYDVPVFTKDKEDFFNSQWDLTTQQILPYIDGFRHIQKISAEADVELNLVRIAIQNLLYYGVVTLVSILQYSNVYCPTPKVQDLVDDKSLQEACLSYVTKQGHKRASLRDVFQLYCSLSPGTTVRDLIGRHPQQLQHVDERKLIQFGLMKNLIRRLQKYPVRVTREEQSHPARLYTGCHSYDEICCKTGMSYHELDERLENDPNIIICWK
Chain of LYCHOS-GATOR1 complex (Q12980 whole entry partner, one chain of several): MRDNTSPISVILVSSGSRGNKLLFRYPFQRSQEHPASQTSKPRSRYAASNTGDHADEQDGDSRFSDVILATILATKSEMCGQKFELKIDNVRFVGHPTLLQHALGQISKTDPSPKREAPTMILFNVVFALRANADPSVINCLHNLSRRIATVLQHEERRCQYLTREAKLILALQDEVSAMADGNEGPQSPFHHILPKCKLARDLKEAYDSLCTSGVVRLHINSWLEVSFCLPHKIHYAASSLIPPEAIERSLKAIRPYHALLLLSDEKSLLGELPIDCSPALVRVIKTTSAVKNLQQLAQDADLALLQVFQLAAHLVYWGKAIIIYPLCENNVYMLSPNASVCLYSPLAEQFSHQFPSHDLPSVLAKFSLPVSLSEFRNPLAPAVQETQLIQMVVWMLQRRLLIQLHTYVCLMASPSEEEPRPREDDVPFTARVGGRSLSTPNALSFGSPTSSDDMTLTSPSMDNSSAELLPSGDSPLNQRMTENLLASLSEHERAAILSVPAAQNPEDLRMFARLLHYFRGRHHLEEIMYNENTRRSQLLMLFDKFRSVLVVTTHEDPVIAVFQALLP

**Q.** How did the Kd [1] turn out when `CC(C)CCC[C@@H](C)[C@H]1CC[C@H]2[C@@H]3CC=C4C[C@@H](O)CC[C@]4(C)[C@H]3CC[C@]12C` [cholesterol] was run?
**A.** 0.1 to 0.2 µM

**Q.** What about the EC50 [2] of the same compound?
**A.** 31.5 µM
